The test system of one test is MDA-MB-436 cells. The test is described as follows: In-vitro cytological inhibitory activity (CelltiterGlo assay), 7 days culture. As to conditions: BRCA1 mutated human breast cancer cells, CTG. It is filed as cell-based. As for the experimental part: The MDA-MB-436 cells were adherent cells, and the culture solution was DMEM+10% FBS+1% ITS-G+16 μg/ml glutathione.
Cells in the logarithmic growth phase were collected and counted by a […]. The cell viability was detected by a trypan blue exclusion method, and the cell viability was kept over 90%. The cell concentration was adjusted to be in a proper range, and 90 μL of cell suspension was added into a 96-well plate respectively.
The stock solutions of the test compounds were diluted by 10 times from 10 mM to 1 mM with DMSO, and then continuously gradiently diluted by 3 times with DMSO into a total of 9 concentrations.
10 μL of compound working stock solution was added into each well in a 96-well plate inoculated with cells (diluted by 10 times, the final concentration of DMSO was 0.1%).
Solvent control: 0.1% DMSO (2 μL of DMSO was diluted with 198 μL of culture solution, and then 10 μL of the diluted solution was added into the well plate).
Blank control: the 96-well plate was detected and read 0 hour after the addition.
2.5 the 96-Well Plate was Placed in a 5% CO2 Cell Incubator at 37° C. To Culture for 7 Days
A CTG reagent was thawed and the 96-well plate was equilibrated to room temperature for 30 minutes, 60 μL of reagent (Celltiter Glo assay kit) was added into each well and shaken by a shaker for 2 minutes to mix uniformly (in the dark), and the mixture was incubated at room temperature for 20 minutes (in the dark). Light signal values were read by a multi-functional microplate reader.
On the technique in general: In ATP-based viability assays light output follows the ATP content of the culture.

The next test deals with PARP1 (Homo sapiens (Human), UniProt P09874). Nature of the test: In-vitro enzymatic activity, PARP1 (histone-coated plate, chemiluminescence detection). As to conditions: class symbols. It is filed as biochemical.
A further test concerns the target PARP2 (Homo sapiens (Human), UniProt Q9UGN5). Nature of the test: In-vitro enzymatic activity, PARP2 (histone-coated plate, chemiluminescence detection). As to conditions: class symbols. It is filed as biochemical.

In general, IC50 refers to the point on the concentration scale where inhibition reaches its midpoint. Low values mean greater potency in that assay, high ones weaker potency in that assay.

PARP2, sequence (Q9UGN5 whole entry): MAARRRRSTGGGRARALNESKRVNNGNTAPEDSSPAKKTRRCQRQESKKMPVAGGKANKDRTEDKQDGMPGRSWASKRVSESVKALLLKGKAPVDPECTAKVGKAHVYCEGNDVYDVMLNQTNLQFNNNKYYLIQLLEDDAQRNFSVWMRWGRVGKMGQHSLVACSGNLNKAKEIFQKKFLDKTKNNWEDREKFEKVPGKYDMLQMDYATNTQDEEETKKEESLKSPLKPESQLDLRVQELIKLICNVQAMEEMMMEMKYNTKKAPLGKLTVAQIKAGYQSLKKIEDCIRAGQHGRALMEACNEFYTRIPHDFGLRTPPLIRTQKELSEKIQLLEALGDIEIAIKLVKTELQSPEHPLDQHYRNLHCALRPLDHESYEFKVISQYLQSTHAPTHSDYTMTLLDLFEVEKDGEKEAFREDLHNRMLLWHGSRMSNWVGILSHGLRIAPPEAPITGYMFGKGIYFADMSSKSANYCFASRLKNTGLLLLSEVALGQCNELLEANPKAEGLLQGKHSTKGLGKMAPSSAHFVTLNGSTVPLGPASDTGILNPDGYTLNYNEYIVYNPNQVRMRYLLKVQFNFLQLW
PARP1, sequence (P09874 whole entry): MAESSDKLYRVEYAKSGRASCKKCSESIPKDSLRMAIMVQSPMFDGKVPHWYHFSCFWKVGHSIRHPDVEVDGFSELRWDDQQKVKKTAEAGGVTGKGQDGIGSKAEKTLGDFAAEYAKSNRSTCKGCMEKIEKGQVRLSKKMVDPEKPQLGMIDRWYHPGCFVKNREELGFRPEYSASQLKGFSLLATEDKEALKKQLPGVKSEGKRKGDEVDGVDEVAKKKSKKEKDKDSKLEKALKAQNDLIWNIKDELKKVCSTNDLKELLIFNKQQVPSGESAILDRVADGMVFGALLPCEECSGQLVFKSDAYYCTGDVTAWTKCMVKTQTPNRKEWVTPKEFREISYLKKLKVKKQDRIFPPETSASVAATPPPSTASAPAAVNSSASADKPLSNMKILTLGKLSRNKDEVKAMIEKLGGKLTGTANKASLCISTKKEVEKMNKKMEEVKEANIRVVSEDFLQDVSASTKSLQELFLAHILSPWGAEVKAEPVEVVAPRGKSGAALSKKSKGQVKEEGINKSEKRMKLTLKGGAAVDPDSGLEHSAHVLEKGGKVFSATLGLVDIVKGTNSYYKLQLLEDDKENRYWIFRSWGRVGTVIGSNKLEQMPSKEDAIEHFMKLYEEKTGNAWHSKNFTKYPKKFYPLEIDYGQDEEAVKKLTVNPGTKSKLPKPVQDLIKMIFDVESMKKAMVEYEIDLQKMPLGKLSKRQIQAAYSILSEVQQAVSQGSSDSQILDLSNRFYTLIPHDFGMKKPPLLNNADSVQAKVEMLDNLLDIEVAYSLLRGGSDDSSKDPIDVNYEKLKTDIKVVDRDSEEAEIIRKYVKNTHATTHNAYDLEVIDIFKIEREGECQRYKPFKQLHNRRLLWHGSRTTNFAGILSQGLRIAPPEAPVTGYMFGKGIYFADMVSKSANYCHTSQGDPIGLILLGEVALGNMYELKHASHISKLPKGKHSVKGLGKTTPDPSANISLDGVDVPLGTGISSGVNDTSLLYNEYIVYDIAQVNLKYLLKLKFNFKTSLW

Take “5-(4-((6,9-difluoro-3-methyl-2-oxo-2,3-dihydro-1H-pyrrolo[1,2,3-de]quinoxaline-8-yl)methyl)piperazine-1-yl)-6-fluoro-N-methylpyridine Formamide [Compound 38]”: the half-inhibitory concentration (IC50) is 15.2 nM with MDA-MB-436 cells, 1 to 3 nM against PARP1 and 100 to 1000 nM against PARP2.

As for `CNC(=O)c1ccc(N2CCN(Cc3cc4c5c(c(C)c(=O)[nH]c5c3F)CC4)CC2)c(F)n1` [Compound 6, 6-fluoro-5-(4-((8-fluoro-3-methyl-2-oxo-1,2,4,5-tetrahydrocyclopentyl[de]quinoline-7-yl)methyl)piperazine-1-yl)-N-methylpicolinamide], the midpoint of inhibition in the test with MDA-MB-436 cells, the IC50, lay at 2 nM.

For `CNC(=O)c1ccc(N2CCN(Cc3cc4c5c(cnn5CC(=O)N4)c3)CC2)c(F)n1` [Compound 8, 6-fluoro-N-methyl-5-(4-((2-oxo-2,3-dihydro-1H-pyrazolo[1,5,4-de]quinoxaline-8-yl)methyl)piperazine-1-yl)picolinamide], inhibition in the test with MDA-MB-436 cells (MDA-MB-436, 168 h) was half-maximal at 129 nM (IC50).

Compound `CNC(=O)c1ccc(N2CCN(Cc3cc4c5c(ccn5CC(=O)N4)c3)CC2)c(F)n1` [Compound 11, 6-fluoro-N-methyl-5-(4-((2-oxo-2,3-dihydro-1H-pyrrolo[1,2,3-de]quinoxaline-8-yl)methyl)piperazine-1-yl)picolinamide] had an IC50 in the test on MDA-MB-436 cells (MDA-MB-436, 168 h) of 21.5 nM.

For the compound `CNC(=O)c1ccc(N2CCN(Cc3cc4c5c(c(C)c(=O)[nH]c5c3)CCC4)CC2)c(F)n1` [Compound 25, 6-fluoro-N-methyl-5-(4-((3-methyl-2-oxo-2,4,5,6-tetrahydro-1H-benzo[de]quinoline-8-yl)methyl)piperazine-1-yl)picolinamide], the IC50 with MDA-MB-436 cells (MDA-MB-436, 168 h) was 15.8 nM; at PARP1 it was less than 1 nM; on PARP2 it was 10 to 100 nM.

As to `CNC(=O)c1ccc(N2CCN(Cc3cc4c5c(c(C)c(=O)[nH]c5c3)CC4)CC2)c(F)n1` [Compound 31, 6-fluoro-N-methyl-5-(4-((3-methyl-2-oxo-1,2,4,5-tetrahydrocyclopentane[de]quinoline-7-yl)methyl)piperazine-1-yl)pyridine carboxamide], the IC50 with MDA-MB-436 cells is 2.2 nM; on PARP1, less than 1 nM; at PARP2, 10 to 100 nM.

For `CNC(=O)c1ccc(N2CCN(Cc3cc4cc(C)n5c4c(c3F)NC(=O)C5C)CC2)c(F)n1` (centres unmarked) [Compound 34, 6-fluoro-5-(4-((9-fluoro-3,5-dimethyl-2-oxo-2,3-dihydro-1H-pyrrolo[1,2,3-de]quinoxaline-8-yl)methyl)piperazine-1-yl)-N-methylpyridine formamide], the IC50 is 13.6 nM in the test on MDA-MB-436 cells (MDA-MB-436, 168 h); 1 to 3 nM on PARP1; 100 to 1000 nM against PARP2.

`CNC(=O)c1ccc(N2CCN(Cc3cc4ccn5c4c(c3F)NC(=O)[C@H]5C)CC2)c(F)n1` [Compound 36, (R)-6-fluoro-5-(4-((9-fluoro-3-methyl-2-oxo-2,3-dihydro-1H-pyrrolo[1,2,3-de]quinoxaline-8-yl)methyl)piperazine-1-yl)-N-methylpyridine formamide] gave a half-inhibitory concentration (IC50) in the test with MDA-MB-436 cells (MDA-MB-436, 168 h) of 11.1 nM.

As for `CNC(=O)c1ccc(N2CCN(Cc3cc4c5c(ccn5C(C)(C)C(=O)N4)c3)CC2)c(F)n1` [Compound 46, 5-(4-((3,3-dimethyl-2-oxo-2,3-dihydro-1H-pyrrolo[1,2,3-de]quinoxaline-8-yl)methyl)piperazine-1-yl)-6-fluoro-N-methylpicolinamide], the half-inhibitory concentration (IC50) in the test with MDA-MB-436 cells (MDA-MB-436, 168 h) was 9.2 nM; against PARP1, 3 to 10 nM; on PARP2 it was 100 to 1000 nM.

For the compound `CNC(=O)c1ccc(N2CCN(Cc3cc4c5c(c3)c(F)nn5[C@@H](C)C(=O)N4)CC2)c(F)n1` [Compound 49-1, (S)-6-fluoro-5-(4-((6-fluoro-3-methyl-2-oxo-2,3-dihydro-1H-pyrazolo[1,5,4-de]quinoxaline-8-yl)methyl)piperazine-1-yl)-N-methylpicolinamide], the IC50 is 3.6 nM in the test with MDA-MB-436 cells (MDA-MB-436, 168 h); 1 to 3 nM at PARP1; 100 to 1000 nM against PARP2.

As to `CNC(=O)c1ccc(N2CCN(Cc3cc4c5c(c3)c(F)nn5[C@H](C)C(=O)N4)CC2)c(F)n1` [Compound 49-2, (R)-6-fluoro-5-(4-((6-fluoro-3-methyl-2-oxo-2,3-dihydro-1H-pyrazolo[1,5,4-de]quinoxaline-8-yl)methyl)piperazine-1-yl)-N-methylpicolinamide], the IC50 with MDA-MB-436 cells (MDA-MB-436, 168 h) is 2.9 nM; against PARP1, less than 1 nM; at PARP2, 100 to 1000 nM.

For “(S)-6-fluoro-5-(4-((9-fluoro-3-methyl-2-oxo-2,3-dihydro-1H-pyrrolo[1,2,3-de]quinoxaline-8-yl) methyl)piperazine-1-yl)-N-methylpyridine formamide [Compound 35]”, the concentration for half-maximal inhibition (IC50) in the test with MDA-MB-436 cells was 46.5 nM.
